Results on 23 molecules are retold here after patent US8063071B2 (GlaxoSmithKline, LLC, priority 2007, dated 2011).

Structures can show the parent of a compound that is named as a salt. Some results are limits rather than exact numbers.

For test [1], the system named is human monocyte stimulated cytokine production (TNF-α). The experiment in a line: Monocyte assay (LPS-stimulated TNF-α production). The test is classed as cell-based. The settings on record: for IC50: 24 h, 200 ng/mL LPS, TNF-α by ELISA; for inhibition at 0.3 µM: read-out: inhibition at 300 nM in the monocyte assay. In short, it runs like this: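 Human CD14+ monocytes were purified from blood and plated at 1×10^6 cells/mL in RPMI 1640 with 10% FBS. Compound was added 30 min before stimulation with 200 ng/mL LPS (0.1% DMSO final), followed by 24 hrs at 37 C. Supernatant TNF-α was measured by ELISA, and viability by trypan blue exclusion.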

The target in test [2] is T1, Recombinant human IKKβ (residues 1-737) (Homo sapiens, UniProt O14920).
T1 construct: Recombinant human IKKβ (residues 1-737); GST (C); made in house
T1 sequence (O14920 1-737): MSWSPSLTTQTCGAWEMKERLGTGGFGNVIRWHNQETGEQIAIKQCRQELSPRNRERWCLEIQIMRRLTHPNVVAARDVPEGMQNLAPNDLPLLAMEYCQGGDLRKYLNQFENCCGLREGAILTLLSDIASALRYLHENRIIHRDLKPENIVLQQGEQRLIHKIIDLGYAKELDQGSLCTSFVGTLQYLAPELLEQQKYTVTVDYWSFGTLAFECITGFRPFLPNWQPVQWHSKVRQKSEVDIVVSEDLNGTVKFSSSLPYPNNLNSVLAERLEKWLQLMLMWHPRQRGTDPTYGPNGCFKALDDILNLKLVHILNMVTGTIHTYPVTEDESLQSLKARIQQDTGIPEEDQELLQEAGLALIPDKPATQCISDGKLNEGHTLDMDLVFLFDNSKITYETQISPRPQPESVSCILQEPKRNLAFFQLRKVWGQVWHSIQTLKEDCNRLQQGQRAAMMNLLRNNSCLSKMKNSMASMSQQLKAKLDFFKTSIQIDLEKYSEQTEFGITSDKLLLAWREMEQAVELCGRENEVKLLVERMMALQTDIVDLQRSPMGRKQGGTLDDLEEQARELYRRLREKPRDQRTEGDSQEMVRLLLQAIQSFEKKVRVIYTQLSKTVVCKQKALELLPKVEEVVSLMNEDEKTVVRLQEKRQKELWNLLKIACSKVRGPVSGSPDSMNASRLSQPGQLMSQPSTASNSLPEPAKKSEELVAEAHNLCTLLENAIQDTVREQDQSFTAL
The experiment in a line: IKK2 assay (TR-FRET). The test is classed as biochemical. The settings on record: ATP 1 μM final, read-out: pIC50 against IKK2 (converted). Put shortly:
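Baculovirus-expressed C-terminal GST-tagged IKKβ (0.5-5 nM final) in HEPES pH 7.4, MgCl2, CHAPS, DTT, BSA with 1.7% DMSO; 25 nM GST-IB substrate and 1 μM ATP, 15 min at room temperature. EDTA stop; phospho-Ser32/36 detected by Eu-antibody/APC-anti-GST TR-FRET, 665/620 nm ratio.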
A general note: Time-resolved FRET reads energy transfer from a long-lived donor to a nearby acceptor.

As for `CCS(=O)(=O)N1CCC(c2c[nH]c3c(C(N)=O)cc(-c4ccc(CN[C@@H](C)C(C)C)cc4)cc23)CC1` [Example 161, 5-[4-({[(1S)-1,2-dimethylpropyl]amino}methyl)phenyl]-3-[1-(ethylsulfonyl)-4-piperidinyl]-1H-indole-7-carboxamide trifluoroacetate], the IC50 in test [1] is not above 1.5 µM; in test [2], not above 10 µM.
Turning to `CCS(=O)(=O)N1CCC(c2c[nH]c3c(C(N)=O)cc(-c4cccc(CN[C@H](C)C(C)C)c4)cc23)CC1` [Example 162, 5-[3-({[(1R)-1,2-dimethylpropyl]amino}methyl)phenyl]-3-[1-(ethylsulfonyl)-4-piperidinyl]-1H-indole-7-carboxamide trifluoroacetate], the IC50 is not above 1.5 µM in test [1] and not above 10 µM in test [2].
For `CCS(=O)(=O)N1CCC(c2c[nH]c3c(C(N)=O)cc(-c4cccc(N)n4)cc23)CC1` [Example 163, 5-(6-amino-2-pyridinyl)-3-[1-(ethylsulfonyl)-4-piperidinyl]-1H-indole-7-carboxamide trifluoroacetate] the same measures were not above 1.5 µM and not above 10 µM.
Regarding `CCS(=O)(=O)N1CCC(c2c[nH]c3c(C(N)=O)cc(-c4ccc(N(C)C)cc4)cc23)CC1` [Example 165, 5-[4-(dimethylamino)phenyl]-3-[1-(ethylsulfonyl)-4-piperidinyl]-1H-indole-7-carboxamide], the IC50 is more than 1 µM in test [1] and not above 10 µM in test [2].
Consider `CCS(=O)(=O)N1CCC(c2c[nH]c3c(C(N)=O)cc(-c4cccc(N)c4)cc23)CC1` [Example 166, 5-(3-aminophenyl)-3-[1-(ethylsulfonyl)-4-piperidinyl]-1H-indole-7-carboxamide], for which the values for the IC50 in test [1] and in test [2] were not above 1.5 µM and not above 10 µM, respectively.
As to `CCS(=O)(=O)N1CCC(c2c[nH]c3c(C(N)=O)cc(-c4ccc(CN5CCCC5C)s4)cc23)CC1` (stereo not shown) [Example 167, 3-[1-(ethylsulfonyl)-4-piperidinyl]-5-{5-[(2-methyl-1-pyrrolidinyl)methyl]-2-thienyl}-1H-indole-7-carboxamide], the values for the IC50 in test [1] and in test [2] were not above 1.5 µM and not above 10 µM, respectively.
For `CCNCc1ccc(-c2cc(C(N)=O)c3[nH]cc(C4CCN(S(=O)(=O)CC)CC4)c3c2)s1` [Example 168, 5-{5-[(ethylamino)methyl]-2-thienyl}-3-[1-(ethylsulfonyl)-4-piperidinyl]-1H-indole-7-carboxamide] the same measures were not above 1.5 µM and not above 10 µM.
In the case of `CCS(=O)(=O)N1CCC(c2c[nH]c3c(C(N)=O)cc(-c4ccc(CNC(C)C)s4)cc23)CC1` [Example 169, 3-[1-(ethylsulfonyl)-4-piperidinyl]-5-(5-{[(1-methylethyl)amino]methyl}-2-thienyl)-1H-indole-7-carboxamide], the IC50 in test [1] was not above 1.5 µM; in test [2] it was not above 10 µM.
For `CCS(=O)(=O)N1CCC(c2c[nH]c3c(C(N)=O)cc(-c4ccc(CNC5CC5)s4)cc23)CC1` [Example 170, 5-{5-[(cyclopropylamino)methyl]-2-thienyl}-3-[1-(ethylsulfonyl)-4-piperidinyl]-1H-indole-7-carboxamide], the values for the IC50 in test [1] and in test [2] were not above 1.5 µM and not above 10 µM, respectively.
For `CCS(=O)(=O)N1CCC(c2c[nH]c3c(C(N)=O)cc(-c4ccc(CNCC(C)(C)C)s4)cc23)CC1` [Example 171, 5-(5-{[(2,2-dimethylpropyl)amino]methyl}-2-thienyl)-3-[1-(ethylsulfonyl)-4-piperidinyl]-1H-indole-7-carboxamide], the IC50 in test [1] is not above 1.5 µM; in test [2], not above 10 µM.
On to `CCS(=O)(=O)N1CCC(c2c[nH]c3c(C(N)=O)cc(-c4ccc(CNCC5CC5)s4)cc23)CC1` [Example 172, 5-(5-{[(cyclopropylmethyl)amino]methyl}-2-thienyl)-3-[1-(ethylsulfonyl)-4-piperidinyl]-1H-indole-7-carboxamide], for which the results for the IC50 in test [1] and in test [2] were not above 1.5 µM and not above 10 µM, respectively.
Usually inhibition stands for the relative decrease from the control value, in per cent. Consider `CCS(=O)(=O)N1CCC(c2c[nH]c3c(C(N)=O)cc(-c4cncc(CNCCOC)c4)cc23)CC1` [Example 174, 3-[1-(ethylsulfonyl)-4-piperidinyl]-5-[5-({[2-(methyloxy)ethyl]amino}methyl)-3-pyridinyl]-1H-indole-7-carboxamide], for which the inhibition at 0.3 µM in test [1] lay in the range of 0 to 60%. The IC50 in test [2] is not above 10 µM.
In the case of `CCS(=O)(=O)N1CCC(c2c[nH]c3c(C(N)=O)cc(-c4cncc(CNCCCOC)c4)cc23)CC1` [Example 175, 3-[1-(ethylsulfonyl)-4-piperidinyl]-5-[5-({[3-(methyloxy)propyl]amino}methyl)-3-pyridinyl]-1H-indole-7-carboxamide], the inhibition at 0.3 µM in test [1] is 0 to 60%. In test [2], the IC50 is not above 10 µM.
For `CCS(=O)(=O)N1CCC(c2c[nH]c3c(C(N)=O)cc(-c4cncc(CN5CCOCC5)c4)cc23)CC1` [Example 176, 3-[1-(ethylsulfonyl)-4-piperidinyl]-5-[5-(4-morpholinylmethyl)-3-pyridinyl]-1H-indole-7-carboxamide], the inhibition at 0.3 µM in test [1] is 0 to 60%. The IC50 in test [2] was not above 10 µM.
Consider `CCNCc1cncc(-c2cc(C(N)=O)c3[nH]cc(C4CCN(S(=O)(=O)CC)CC4)c3c2)c1` [Example 177, 5-{5-[(ethylamino)methyl]-3-pyridinyl}-3-[1-(ethylsulfonyl)-4-piperidinyl]-1H-indole-7-carboxamide], for which the inhibition at 0.3 µM in test [1] fell in the range of 0 to 60%. Also, the IC50 in test [2] was not above 10 µM.
With `CCS(=O)(=O)N1CCC(c2c[nH]c3c(C(N)=O)cc(-c4cncc(CN(C)C)c4)cc23)CC1` [Example 178, 5-{5-[(dimethylamino)methyl]-3-pyridinyl}-3-[1-(ethylsulfonyl)-4-piperidinyl]-1H-indole-7-carboxamide], the inhibition at 0.3 µM in test [1] was in the range of 0 to 60%. In addition, the IC50 in test [2] is not above 10 µM.
Take `CCS(=O)(=O)N1CCC(c2c[nH]c3c(C(N)=O)cc(-c4cncc(CN5CCCC5C)c4)cc23)CC1` (stereo not shown) [Example 179, 3-[1-(ethylsulfonyl)-4-piperidinyl]-5-{5-[(2-methyl-1-pyrrolidinyl)methyl]-3-pyridinyl}-1H-indole-7-carboxamide]: the inhibition at 0.3 µM in test [1] fell in the range of 0 to 60%. Besides, in test [2], the IC50 is not above 10 µM.
The like results for `CCS(=O)(=O)N1CCC(c2c[nH]c3c(C(N)=O)cc(-c4cncc(CNCC(C)C)c4)cc23)CC1` [Example 180, 3-[1-(ethylsulfonyl)-4-piperidinyl]-5-(5-{[(2-methylpropyl)amino]methyl}-3-pyridinyl)-1H-indole-7-carboxamide] were, in that order, 0 to 60% and not above 10 µM.
Turning to `CCS(=O)(=O)N1CCC(c2c[nH]c3c(C(N)=O)cc(-c4cncc(CNCC(C)(C)C)c4)cc23)CC1` [Example 181, 5-(5-{[(2,2-dimethylpropyl)amino]methyl}-3-pyridinyl)-3-[1-(ethylsulfonyl)-4-piperidinyl]-1H-indole-7-carboxamide], in test [1], the inhibition at 0.3 µM fell in the range of 0 to 60%. Moreover, the IC50 in test [2] is not above 10 µM.
As for `CCC(C)CNCc1ccc(-c2cc(C(N)=O)c3[nH]cc(C4CCN(S(=O)(=O)CC)CC4)c3c2)s1` (stereo not shown) [Example 182, 3-[1-(ethylsulfonyl)-4-piperidinyl]-5-(5-{[(2-methylbutyl)amino]methyl}-2-thienyl)-1H-indole-7-carboxamide], the results for the IC50 in test [1] and in test [2] were not above 1.5 µM and not above 10 µM, respectively.
With `CCCCCNCc1ccc(-c2cc(C(N)=O)c3[nH]cc(C4CCN(S(=O)(=O)CC)CC4)c3c2)s1` [Example 184, 3-[1-(ethylsulfonyl)-4-piperidinyl]-5-{5-[(pentylamino)methyl]-2-thienyl}-1H-indole-7-carboxamide], the inhibition at 0.3 µM in test [1] is 0 to 60%. Also, the IC50 in test [2] was not above 10 µM.
For `CC[C@H](C)CNCc1ccc(-c2cc(C(N)=O)c3[nH]cc(C4CCN(S(=O)(=O)CC)CC4)c3c2)s1` [Example 185, 3-[1-(ethylsulfonyl)-4-piperidinyl]-5-[5-({[(2S)-2-methylbutyl]amino}methyl)-2-thienyl]-1H-indole-7-carboxamide], the inhibition at 0.3 µM in test [1] was in the range of 0 to 60%. The IC50 in test [2] is not above 10 µM.
In the case of `CCCC(C)NCc1ccc(-c2cc(C(N)=O)c3[nH]cc(C4CCN(S(=O)(=O)CC)CC4)c3c2)s1` (stereo not shown) [Example 186, 3-[1-(ethylsulfonyl)-4-piperidinyl]-5-(5-{[(1-methylbutyl)amino]methyl}-2-thienyl)-1H-indole-7-carboxamide], the inhibition at 0.3 µM in test [1] fell in the range of 0 to 60%. Also, the IC50 in test [2] was not above 10 µM.
